From US20160355530A1, “HEPATITIS C INHIBITORS AND USES THEREOF” (AbbVie Inc., priority 2010, published 2016) come the findings set out here.

What is called EC50 is the concentration at which the effect is half-maximal. Usually IC50 stands for the concentration at which inhibition is half-maximal.

Read-outs that look alike come from different tables or passages of the source.

Assay [1] has as its system chimeric replicon with genotype 4a NS5B. The assay is described as follows: microbe, parasite or virus in culture. Type of assay: cell-based, HCV genotype 4a. As to conditions: Hepatitis C virus, read-out: 4a chimera 5% FBS EC50.
Assay [2] deals with T1, HCV NS5B polymerase 1b BK strain (Hepatitis C virus genotype 1b, UniProt P26663).
T1 construct: six-histidine tag; made in house; host or cells: E. coli
T1 sequence (P26663 2420-2989): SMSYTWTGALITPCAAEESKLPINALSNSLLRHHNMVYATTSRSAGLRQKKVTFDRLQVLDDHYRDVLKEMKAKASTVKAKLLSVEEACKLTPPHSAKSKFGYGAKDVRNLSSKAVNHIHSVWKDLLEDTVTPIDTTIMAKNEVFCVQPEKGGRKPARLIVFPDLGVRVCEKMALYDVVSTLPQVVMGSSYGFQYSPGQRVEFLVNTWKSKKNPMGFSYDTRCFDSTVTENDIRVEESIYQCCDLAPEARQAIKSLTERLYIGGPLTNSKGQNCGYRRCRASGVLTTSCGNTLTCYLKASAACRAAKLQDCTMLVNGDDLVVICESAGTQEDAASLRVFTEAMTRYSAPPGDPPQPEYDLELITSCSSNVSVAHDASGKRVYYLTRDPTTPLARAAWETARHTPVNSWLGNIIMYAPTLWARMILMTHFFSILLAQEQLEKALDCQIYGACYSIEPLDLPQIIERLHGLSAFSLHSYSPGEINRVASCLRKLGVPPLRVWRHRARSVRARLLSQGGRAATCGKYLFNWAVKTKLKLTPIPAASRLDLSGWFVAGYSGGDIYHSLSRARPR
The assay is described as follows: HCV NS5B polymerase enzymatic inhibition assay, strain 1b BK. The class given is biochemical. To be noted: enzyme, strain 1b BK; read-out: HCV Polymerase Strain 1b BK IC50. In short, it runs like this:
(§1)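 Recombinant NS5B (residues 1–570, His-tagged, E. coli-expressed) copied 5 nM of a 2.1 kb HCV 1b negative-strand 3′-end RNA template with 20 μM CTP, 20 μM ATP and 0.284 μM [3H]UTP for 3 h at 30 °C. Spermine-precipitated RNA was filter-captured and counted, and IC50 was fitted by nonlinear regression.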

Assay [3] relates to HCV 1a-H77 transient subgenomic replicon in Huh-7 derived cell line. Put plainly: microbe, parasite or virus in culture. Type of assay: cell-based, HCV genotype 1a. To be noted: Hepatitis C virus, Huh-7; transient replicon, 5% FBS; read-out: Transient Replicon 1a H77 5% FBS EC50. As to the method:
(§2) In addition to the stable replicon inhibition assays, transient replicon assays were performed. Transient replicons are identical to the 1a-H77 and 1a-H77-C316Y constructs, except they lack the Neo gene, making it impossible to establish stable cell lines. A T7 Megascript RNA synthesis kit (Ambion) was used to transcribe the HCV subgenomic RNA. The HCV RNA was then precipitated with lithium chloride according to manufacturer's instructions. The HCV subgenomic replicon RNA was transfected via electroporation into a Huh-7 derived cell line as described (Middleton T, et al. J. Virological Methods 2007; 145(2): 137-145). Transfected cells were diluted and plated in 96 well plates at 5×10^3 cells per well in DMEM. Four hours post-transfection, the wells from one plate were harvested for luciferase measurement. This plate provides a measure of the amount of translatable input RNA, and therefore transfection efficiency. To the wells of the remaining plates, a 3-fold dilution series of test compounds was added in DMSO (0.5% DMSO final concentration), and plates were incubated at 37° C., 5% CO2 in a humidified incubator for 4 days. After this period, the media was removed and the plates were washed with 100 μL phosphate-buffered saline per well. For the luciferase assay, 30 μL of Passive Lysis buffer (Promega) was added to each well, and then the plates were incubated for 15 minutes with rocking to lyse the cells. Luciferin solution (100 μL, Promega) was added to each well, and luciferase activity was measured with a Victor II luminometer (Perkin-Elmer). The EC50 values were calculated using GraphPad Prism 4 software.
Background: A replicon is a self-replicating genome or part of one, used to study replication in cells.

In assay [4] the test system is HCV 1a-H77-C316Y transient subgenomic replicon in Huh-7 derived cell line. Put plainly: microbe, parasite or virus in culture. Type of assay: cell-based, HCV genotype 1a. As to conditions: for EC50: Hepatitis C virus, Huh-7, read-out: Transient Replicon 1a H77-C316Y 5% FBS EC50; for Transient Replicon Fold Resistance C316Y/1a: ratio of transient replicon EC50s, C316Y / 1a H77. As to the method:
as §2

Assay [5] has as its system chimeric replicon with genotype 2b NS5B. The assay is described as follows: microbe, parasite or virus in culture. The class given is cell-based, HCV genotype 2b. To be noted: Hepatitis C virus, read-out: 2b chimera 5% FBS EC50.
In assay [6] the test system is HCV 1a-H77 subgenomic replicon. Put plainly: microbe, parasite or virus in culture. The class given is cell-based, HCV genotype 1a. To be noted: Hepatitis C virus, stable replicon.
Assay [7] concerns chimeric replicon with 2a-J6CF-derived NS5B. Put plainly: microbe, parasite or virus in culture. Type of assay: cell-based, HCV genotype 2a. As to conditions: Hepatitis C virus, read-out: 2a chimera 5% FBS EC50.
Assay [8] concerns chimeric replicon with genotype 3a NS5B. The assay is described as follows: microbe, parasite or virus in culture. As to conditions: Hepatitis C virus, read-out: 3a chimera 5% FBS EC50. Type of assay: cell-based, HCV genotype 3a.
Assay [9] has as its system HCV NS5B polymerase 1a-H77-C316Y. Put plainly: biochemical. The arrangement: species or system HCV genotype 1a. To be noted: ratio of enzyme IC50s, 1a H77-C316Y / 1a H77. Summed up: as §1
The target of assay [10] is T2, HCV NS5B polymerase 1a-H77-C316Y (Hepatitis C virus genotype 1a, UniProt P27958, C2736Y).
T2 construct: six-histidine tag; made in house; host or cells: E. coli
T2 sequence (P27958 2421-2990 C2736Y): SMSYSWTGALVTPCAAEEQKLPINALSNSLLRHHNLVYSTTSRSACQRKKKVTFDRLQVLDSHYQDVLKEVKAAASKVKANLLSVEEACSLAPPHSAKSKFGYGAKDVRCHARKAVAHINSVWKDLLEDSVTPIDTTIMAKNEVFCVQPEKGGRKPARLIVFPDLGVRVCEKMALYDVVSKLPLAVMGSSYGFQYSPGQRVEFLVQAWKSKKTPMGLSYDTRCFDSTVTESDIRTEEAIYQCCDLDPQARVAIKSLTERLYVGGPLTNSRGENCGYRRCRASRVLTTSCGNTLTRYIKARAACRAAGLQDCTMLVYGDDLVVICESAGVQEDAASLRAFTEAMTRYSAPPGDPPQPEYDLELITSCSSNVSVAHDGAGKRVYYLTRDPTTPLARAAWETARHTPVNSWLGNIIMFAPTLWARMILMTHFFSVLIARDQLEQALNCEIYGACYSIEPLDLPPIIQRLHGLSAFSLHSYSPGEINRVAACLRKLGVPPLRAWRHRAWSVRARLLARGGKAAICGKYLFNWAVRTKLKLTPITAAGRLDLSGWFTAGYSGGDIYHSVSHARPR
Put plainly: biochemical. Also noted: species or system HCV genotype 1a. Summed up:
as §1

The target of assay [11] is T3, HCV NS5B polymerase 1a-H77 (Hepatitis C virus genotype 1a, UniProt P27958).
T3 construct: six-histidine tag; made in house; host or cells: E. coli
T3 sequence (P27958 2421-2990): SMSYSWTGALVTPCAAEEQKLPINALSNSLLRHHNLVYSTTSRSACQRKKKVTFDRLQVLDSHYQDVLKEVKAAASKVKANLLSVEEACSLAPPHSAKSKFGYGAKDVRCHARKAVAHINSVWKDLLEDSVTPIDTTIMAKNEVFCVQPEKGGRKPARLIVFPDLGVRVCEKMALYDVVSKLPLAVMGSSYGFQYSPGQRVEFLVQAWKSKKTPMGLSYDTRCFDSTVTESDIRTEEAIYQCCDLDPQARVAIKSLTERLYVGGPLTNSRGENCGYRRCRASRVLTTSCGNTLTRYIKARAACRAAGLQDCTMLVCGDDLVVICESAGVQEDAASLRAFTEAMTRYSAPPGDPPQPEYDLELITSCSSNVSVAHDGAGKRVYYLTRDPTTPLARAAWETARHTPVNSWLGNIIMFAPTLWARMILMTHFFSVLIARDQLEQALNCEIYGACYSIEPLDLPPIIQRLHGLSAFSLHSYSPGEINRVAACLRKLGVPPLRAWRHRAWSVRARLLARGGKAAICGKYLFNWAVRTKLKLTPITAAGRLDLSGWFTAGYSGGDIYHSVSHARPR
Put plainly: biochemical. The arrangement: species or system HCV genotype 1a. As to conditions: enzyme, strain 1a H77; read-out: HCV Polymerase Strain 1a H77 IC50. Summed up:
as §1

The test system of assay [12] is HCV 1b-BB7 subgenomic replicon. The assay is described as follows: microbe, parasite or virus in culture. Type of assay: cell-based, HCV genotype 1b. To be noted: Hepatitis C virus, stable replicon.
Setting [13] is: 5% FBS, absence of human plasma, read-out: Stable Replicon 1a H77 5% FBS EC50.
[14] abbreviates: strain 1a H77, 5% FBS + 40% human plasma, read-out: 1a H77 5% FBS + 40% Human Plasma EC50.
Where [15] appears, read: strain 1a H77, 5% FBS, no human plasma, read-out: 1a H77 5% FBS EC50.
Where [16] appears, read: strain 1a H77, 5% FBS, read-out: 1a H77 5% FBS EC50.
Where [17] appears, read: strain 1b BB7, 5% FBS + 40% human plasma, read-out: 1b BB7 5% FBS + 40% Human Plasma EC50.
Setting [18] is: strain 1b BB7, 5% FBS, no human plasma, read-out: 1b BB7 5% FBS EC50.
[19] abbreviates: strain 1b BB7, 5% FBS, read-out: 1b BB7 5% FBS EC50.

Regarding `CS(=O)(=O)N(Cc1cnc(-c2ccc3nc[nH]c3c2)s1)c1ccc2c(-c3ncc[nH]3)c(-c3ccccc3)oc2c1` [Example 3, N-{[2-(1H-benzimidazol-6-yl)-1,3-thiazol-5-yl]methyl}-N-[3-(1H-imidazol-2-yl)-2-phenyl-1-benzofuran-6-yl]methanesulfonamide], the EC50 in assay [1] is 135 nM; in assay [3] it was 21.3 nM; in [4], 109 nM; in [5], 81.8 nM; in [6] (setting [13]), 48 nM; in [6] (setting [14]), 7930 nM. In addition, the EC50 in [6] (setting [15]) worked out at 48 nM; in [6] (setting [16]), 48 nM; in assay [7] it was 29.3 nM; in assay [8], 2.8 nM; in [12] (setting [17]) it was 760 nM; in assay [12] (setting [18]), 5 nM. In assay [12] (setting [19]), the EC50 amounted to 5 nM. The IC50 in assay [2] amounted to 10 nM; in [10], 11 nM; in assay [11] it was 3 nM. Also, the “Transient Replicon Fold Resistance C316Y/1a” value in [4] is 5 fold. For the same molecule, the “C316Y/1a Fold Resistance” value in [9] was determined as 4 fold.

Consider `CC(C)CCN(c1cc2oc(-c3ccc(F)cc3)c(-c3ncc[nH]3)c2cc1C1CC1)S(C)(=O)=O` [Example 4, N-[5-cyclopropyl-2-(4-fluorophenyl)-3-(1H-imidazol-2-yl)-1-benzofuran-6-yl]-N-(3-methylbutyl)methanesulfonamide], for which the EC50 is 169 nM in [1]; 7.9 nM in assay [3]; 69.4 nM in assay [4]; 270 nM in assay [5]; 29 nM in assay [6] (setting [13]); 512 nM in assay [6] (setting [14]). Further, the EC50 in [6] (setting [15]) came out at 29 nM; in assay [6] (setting [16]) it was 29 nM; in [7], 156 nM; in assay [8], 11 nM; in assay [12] (setting [17]), 297 nM; in assay [12] (setting [18]) it was 25 nM. Besides, the EC50 in assay [12] (setting [19]) was found to be 25 nM. Besides, the half-maximal inhibitory concentration (IC50) in [2] was found to be 11 nM; in [10] it was 57 nM; in assay [11], 5.3 nM. In addition, the “Transient Replicon Fold Resistance C316Y/1a” value in assay [4] is 9 fold. Moreover, the “C316Y/1a Fold Resistance” value in assay [9] is listed as 11 fold.

For the molecule `CS(=O)(=O)N(CCCCO)c1cc2oc(-c3ccc(F)cc3)c(-c3ncc[nH]3)c2cc1C1CC1` [Example 5, N-[5-cyclopropyl-2-(4-fluorophenyl)-3-(1H-imidazol-2-yl)-1-benzofuran-6-yl]-N-(4-hydroxybutyl)methanesulfonamide], the concentration giving a half-maximal response (EC50) in assay [1] stood at 32.2 nM; in assay [3], 3 nM; in [4], 88.1 nM; in [5] it was 27.9 nM; in assay [6] (setting [13]), 3.2 nM; in assay [6] (setting [14]), 50 nM. The EC50 in assay [6] (setting [15]) is 3.19 nM; in [6] (setting [16]), 3.2 nM; in assay [7], 28.9 nM; in assay [8], 4.7 nM; in assay [12] (setting [17]), 22 nM; in assay [12] (setting [18]), 3.69 nM. Also, the EC50 in assay [12] (setting [19]) worked out at 3.7 nM. Also, the IC50 in assay [2] was found to be 17 nM; in assay [10], 53 nM; in [11] it was 3.9 nM. Also, the “Transient Replicon Fold Resistance C316Y/1a” value in assay [4] came to 29 fold. In [9], the “C316Y/1a Fold Resistance” value is listed as 14 fold.

For `CS(=O)(=O)CCCCN(c1cc2oc(-c3ccc(F)cc3)c(-c3ncc[nH]3)c2cc1C1CC1)S(C)(=O)=O` [Example 6, N-[5-cyclopropyl-2-(4-fluorophenyl)-3-(1H-imidazol-2-yl)-1-benzofuran-6-yl]-N-[4-(methylsulfonyl)butyl]methanesulfonamide], the EC50 turned out to be 16.1 nM in assay [1]; 3.2 nM in assay [3]; 105 nM in assay [4]; 18.8 nM in [5]; 8.3 nM in assay [6] (setting [13]); 61.3 nM in [6] (setting [14]). Moreover, the half-maximal effective concentration (EC50) in assay [6] (setting [15]) was 8.3 nM; in assay [6] (setting [16]) it was 8.32 nM; in assay [7] it was 26 nM; in [8], 3.3 nM; in assay [12] (setting [17]), 36.2 nM; in assay [12] (setting [18]) it was 3.9 nM. In addition, in [12] (setting [19]), the EC50 turned out to be 3.9 nM. Besides, the half-maximal inhibitory concentration (IC50) in assay [2] was found to be 16 nM; in [10], 69 nM; in [11] it was 5.2 nM. Further, the “Transient Replicon Fold Resistance C316Y/1a” value in assay [4] amounted to 33 fold. The “C316Y/1a Fold Resistance” value in [9] turned out to be 13 fold.

On to `CS(=O)(=O)N(CCCc1cc(O)no1)c1cc2oc(-c3ccc(F)cc3)c(-c3ncc[nH]3)c2cc1C1CC1` [Example 7, N-[5-cyclopropyl-2-(4-fluorophenyl)-3-(1H-imidazol-2-yl)-1-benzofuran-6-yl]-N-[3-(3-hydroxy-1,2-oxazol-5-yl)propyl]methanesulfonamide], for which the EC50 is 162 nM in assay [1]; 9.9 nM in assay [3]; 327 nM in [4]; 178 nM in assay [5]; 15 nM in assay [6] (setting [13]); 111 nM in [6] (setting [14]). Also, the EC50 in assay [6] (setting [15]) was found to be 15 nM; in [6] (setting [16]) it was 15 nM; in assay [7], 218 nM; in assay [8], 11.1 nM; in assay [12] (setting [17]), 106 nM; in assay [12] (setting [18]) it was 5.7 nM. The EC50 in assay [12] (setting [19]) came out at 5.7 nM. The IC50 turned out to be 11 nM in assay [2], 12 nM in assay [10] and 3 nM in assay [11]. In addition, in assay [4], the “Transient Replicon Fold Resistance C316Y/1a” value stood at 33 fold. For the same molecule, the “C316Y/1a Fold Resistance” value in assay [9] is listed as 4 fold.

For the molecule `CC(C)CCN(c1cc2oc(-c3ccc(F)cc3)c(C3=NOCCN3)c2cc1C1CC1)S(C)(=O)=O` [Example 10, N-[5-cyclopropyl-3-(5,6-dihydro-4H-1,2,4-oxadiazin-3-yl)-2-(4-fluorophenyl)-1-benzofuran-6-yl]-N-(3-methylbutyl)methanesulfonamide], the EC50 in assay [1] came out at 192 nM; in assay [3] it was 6 nM; in assay [4], 33.5 nM; in assay [5], 303 nM; in assay [6] (setting [13]) it was 10.5 nM; in assay [6] (setting [14]), 134 nM. Besides, the EC50 was determined as 10.5 nM in assay [6] (setting [15]); 10.5 nM in assay [6] (setting [16]); 181 nM in assay [7]; 16 nM in assay [8]; 171 nM in assay [12] (setting [17]); 16.2 nM in assay [12] (setting [18]). In [12] (setting [19]), the EC50 stood at 16.2 nM. Also, the results for the IC50 in assay [2], in assay [10] and in [11] were 105 nM, 64 nM and 7 nM, respectively. Further, in [4], the “Transient Replicon Fold Resistance C316Y/1a” value was determined as 6 fold.
